Experiments:
[1] = system: LPL of the present invention produced by Streptomyces 7825; experiment: Inhibition of the LPL; type: biochemical
[2] = system: LPL of the present invention produced by Streptomyces 7825; experiment: Substrate specificity of the LPL on lipoproteins consisting of various triglycerides; type: biochemical; details: relative to olive oil as a standard (100%)
Method: In Table 1, the activity is expressed relative to an olive oil as a standard (100%).
Titer determination is principally based on the quantitative determination of glycerol formed through the action of LPL on artificial lipoprotein prepared from olive oil as described in Clin. Chim. Acta., Vol. 22, p.
A mixture of 5 g of olive oil and 5 ml of a 5% (v/v) Triton X-100 solution is subjected to ultrasonication for 10 minutes to prepare a substrate emulsion.
Seventy microliters of the abovementioned substrate solution, 20 μl of a 0.5M glycine buffer (pH 8.5), 50 μl of 10% (w/v) BSA, and 55 μl of water are mixed in a test tube, and the system is preheated at 37° C. 5 μl of an enzyme solution having an enzyme concentration adjusted to about 10 U/ml, is added to the system. The system is then allowed to react at 37° C. for 10 minutes. After completion of the reaction, the test tube is soaked in boiling water to stop the reaction. After allowing the test tube to cool, 400 μl of isopropanol is added to the reaction system, followed by stirring. The mixture is then centrifuged. 2 ml of isopropanol is then added to 100 μl of the supernatant liquor. The solution is mixed with 1 ml of the above prepared metaperiodic acid solution and 0.5 ml of the above prepared acetylacetone solution to effect a reaction at 50° C. for 30 minutes. The absorbance of the system at 405 nm is measured. A blank estimation (control) is run on a system containing no enzyme solution.
From the measured values, a calibration curve is prepared using a glycerol solution having a known concentration. Thus the glycerol content of the reaction mixture is determined using the prepared calibration curve.
The enzyme activity is expressed by taking the amount of the enzyme which forms 1 μmol of glycerol per minute as 1 U.

## [Cl-].[Na+] [NaCl]
[1]; 3M NaCl
  inhibition of LPL: about 40%

## CC(=O)OCC(COC(C)=O)OC(C)=O [Triacetin]
[2]
  Relative Activity: 28%

## CCCC(=O)OCC(COC(=O)CCC)OC(=O)CCC [Tributyrin]
[2]
  Relative Activity: 22%

## CCCCCCCCCC(=O)OCC(COC(=O)CCCCCCCCC)OC(=O)CCCCCCCCC [Tricaprin]
[2]
  Relative Activity: 153%

## CCCCCC(=O)OCC(COC(=O)CCCCC)OC(=O)CCCCC [Tricaproin]
[2]
  Relative Activity: 46%

## CCCCCCCC(=O)OCC(COC(=O)CCCCCCC)OC(=O)CCCCCCC [Tricaprylin]
[2]
  Relative Activity: 148%

## CCCCCCCCCCCC(=O)OCC(COC(=O)CCCCCCCCCCC)OC(=O)CCCCCCCCCCC [Trilaurin]
[2]
  Relative Activity: 234%

## CCCCCCCC/C=C\CCCCCCCC(=O)OCC(COC(=O)CCCCCCC/C=C\CCCCCCCC)OC(=O)CCCCCCC/C=C\CCCCCCCC [Triolein]
[2]
  Relative Activity: 75%

## CCCCCCCCCCCCCCCC(=O)OCC(COC(=O)CCCCCCCCCCCCCCC)OC(=O)CCCCCCCCCCCCCCC [Tripalmitin]
[2]
  Relative Activity: 99%

## CCCCCCCCCCCCCCCCCC(=O)OCC(COC(=O)CCCCCCCCCCCCCCCCC)OC(=O)CCCCCCCCCCCCCCCCC [Tristearin]
[2]
  Relative Activity: 29%

## C[C@H](CCC(=O)O)[C@H]1CC[C@H]2[C@@H]3CC[C@@H]4C[C@H](O)CC[C@]4(C)[C@H]3C[C@H](O)[C@]12C [deoxycholic acid]
[1]; 10 mM deoxycholic acid
  inhibition of LPL: about 40%

## protamine sulfate
[1]; 400 μg/ml protamine sulfate
  inhibition of LPL: about 30%

Reference: patent US5232846A, “Method for producing a thermostable lipoprotein lipase from streptomyces” (Unitika Ltd., priority 1988, dated 1993)
